# Test results reported in patent US12428406B2 (PMV Pharmaceuticals, Inc., priority 2019, dated 2025).
# Target: T1, p53 Y220C (Homo sapiens, UniProt P04637, Y220C)
# T1 construct: The recombinant protein was a truncation mutant containing only amino acids 94-312 of p53; made in house; host or cells: E. coli
# Assay: In vitro DNA binding activity assay (HTRF / TR-FRET): stabilization of p53 Y220C and increase of its DNA binding activity
# Assay type: biochemical
# Settings: recombinant His-tagged p53 Y220C DNA binding domain (aa 94-312), biotin-labeled consensus DNA, incubated at 27° C. or 29° C. for 60 min
# How it was run: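 Compound effect on DNA binding of recombinant His-p53 Y220C (E. coli) to biotin-labeled consensus DNA, expressed as SC150, the concentration giving 50% increase versus untreated. Serial 3-fold DMSO dilutions of 4.5 mM stocks; room-temperature steps of 15 then 20 min.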
# T1 sequence (P04637 94-312, change not shown): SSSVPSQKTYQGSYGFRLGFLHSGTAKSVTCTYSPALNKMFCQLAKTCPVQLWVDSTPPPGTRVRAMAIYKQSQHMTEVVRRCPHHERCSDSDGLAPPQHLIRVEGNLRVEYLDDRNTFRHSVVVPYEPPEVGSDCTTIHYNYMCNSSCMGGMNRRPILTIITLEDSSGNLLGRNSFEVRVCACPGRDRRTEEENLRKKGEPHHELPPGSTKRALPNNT
row,Structure (SMILES),SC150 (concentration of the compound required to increase the DNA binding activity by 50%)
1,"COc1cc(S(C)(=O)=O)ccc1NCC#Cc1cc2c(N[C@@H]3CCN4CCC[C@@H]4C3)cccc2n1CC(F)(F)F [Compound 765A, N-[(7R,8aR)-octahydroindolizin-7-yl]-2-{3-[(4-methanesulfonyl-2-methoxyphenyl)amino]prop-1-yn-1-yl}-1-(2,2,2-trifluoroethyl)-1H-indol-4-amine]",+ (+ = 0 μM ≤ SC150 < 0.05 μM)
2,"COc1cc(S(N)(=O)=O)ccc1NCC#Cc1cc2c(NC3CCOCC3)cc(F)cc2n1CC(F)(F)F [Compound 998A, 4-[(3-{6-fluoro-4-[(oxan-4-yl)amino]-1-(2,2,2-trifluoroethyl)-1H-indol-2-yl}prop-2-yn-1-yl)amino]-3-methoxybenzene-1-sulfonamide]",+ (+ = 0 μM ≤ SC150 < 0.05 μM)
3,"CS(=O)(=O)c1ccc(NCC#Cc2cc3c(NC4CCC(N5CC6(COC6)C5)CC4)cccc3n2CC(F)(F)F)c(OCF)c1 [Compound 257A, 2-(3-{[2-(fluoro-methoxy)-4-methane-sulfonylphenyl]amino}prop-1-yn-1-yl)-N-[(1R,4R)-4-{2-oxa-6-azaspiro[3.3]heptan-6-yl}cyclo-hexyl]-1-(2,2,2-trifluoroethyl)-1H-indol-4-amine]",+ (+ = 0 μM ≤ SC150 < 0.05 μM)
4,"Cc1cc(S(C)(=O)=O)ccc1NCC#Cc1cc2c(N[C@H]3CC[C@H](N4CC5(COC5)C4)CC3)cccc2n1CC(F)(F)F [Compound 283A, 2-{3-[(4-methanesulfonyl-2-methylphenyl)amino]prop-1-yn-1-yl}-N-[(1R,4R)-4-{2-oxa-6-azaspiro[3.3]heptan-6-yl}cyclohexyl]-1-(2,2,2-trifluoroethyl)-1H-indol-4-amine]",+ (+ = 0 μM ≤ SC150 < 0.05 μM)
5,"COc1cc(C(N)=O)ccc1NCC#Cc1cc2c(N[C@@H]3CCN(C)C[C@@H]3F)cccc2n1CC(F)(F)F [Compound 800A, 4-{[3-(4-{[(3S,4R)-3-fluoro-1-methylpiperidin-4-yl]amino}-1-(2,2,2-trifluoroethyl)-1H-indol-2-yl)prop-2-yn-1-yl]amino}-3-methoxybenzamide]",+ (+ = 0 μM ≤ SC150 < 0.05 μM)
6,"COc1cc(S(C)(=O)=O)ccc1NCC#Cc1cc2c(NC3CCN(CC(O)COCC(F)(F)F)CC3)cccc2n1CC(F)(F)F (stereo not drawn) [Compound 673A, 1-{4-[(2-{3-[(4-methanesulfonyl-2-methoxyphenyl)amino]prop-1-yn-1-yl}-1-(2,2,2-trifluoroethyl)-1H-indol-4-yl)amino]piperidin-1-yl}-3-(2,2,2-trifluoroethoxy)propan-2-ol]",+ (+ = 0 μM ≤ SC150 < 0.05 μM)
7,"CCn1ccc(C(=O)NCC#Cc2cc3c(N[C@@H]4CCN(C)C[C@@H]4F)cccc3n2CC(F)(F)F)c1 [Compound 954A, 1-ethyl-N-[3-(4-{[(3S,4R)-3-fluoro-1-methylpiperidin-4-yl]amino}-1-(2,2,2-trifluoroethyl)-1H-indol-2-yl)prop-2-yn-1-yl]-1H-pyrrole-3-carboxamide]",+ (+ = 0 μM ≤ SC150 < 0.05 μM)
8,"CCNC(=O)c1ccc(NCC#Cc2cc3c(N[C@H]4CC[C@@H](N5CC6(COC6)C5)CC4)cccc3n2CC(F)(F)F)c(OC)c1 [Compound 238A, N-ethyl-3-methoxy-4-{[3-(4-{[(1R,4R)-4-{2-oxa-6-azaspiro[3.3]heptan-6-yl}cyclohexyl]amino}-1-(2,2,2-trifluoro-ethyl)-1H-indol-2-yl)prop-2-yn-1-yl]amino} benzamide]",+ (+ = 0 μM ≤ SC150 < 0.05 μM)
9,"CNc1cc(S(C)(=O)=O)ccc1OCC#Cc1cc2c(NC3CCC(N4CC5(COC5)C4)CC3)cccc2n1CC(F)(F)F [Compound 245A, 2-{3-[4-methanesulfonyl-2-(methylamino)phenoxy]prop-1-yn-1-yl}-N-[(1R,4R)-4-{2-oxa-6-azaspiro[3.3]heptan-6-yl}cyclohexyl]-1-(2,2,2-trifluoroethyl)-1H-indol-4-amine]",+ (+ = 0 μM ≤ SC150 < 0.05 μM)
10,"COc1cc(C(=O)O)ccc1NCC#Cc1cc2c(N[C@H]3CCN(C(C)(C)C)C[C@H]3F)cccc2n1CC(F)(F)F [Compound 1071A, 4-{[3-(4-{[(3R,4S)-1-tert-butyl-3-fluoropiperidin-4-yl]amino}-1-(2,2,2-trifluoroethyl)-1H-indol-2-yl)prop-2-yn-1-yl]amino}-3-methoxybenzoic acid]",+ (+ = 0 μM ≤ SC150 < 0.05 μM)
11,"COCC(CN1CCC(Nc2cccc3c2cc(C#CCNc2ccc(S(N)(=O)=O)cc2OC)n3CC(F)(F)F)CC1)OC (stereo not drawn) [Compound 581A, 4-{[3-(4-{[1-(2,3-dimethoxypropyl)piperidin-4-yl]amino}-1-(2,2,2-trifluoroethyl)-1H-indol-2-yl)prop-2-yn-1-yl]amino}-3-methoxybenzene-1-sulfonamide]",+ (+ = 0 μM ≤ SC150 < 0.05 μM)
12,"COc1cc(S(=O)(=O)N(C)CCO)ccc1NCC#Cc1cc2c(NC3CCN(C4CCOCC4)CC3)cccc2n1CC(F)(F)F [Compound 555A, N-(2-hydroxyethyl)-3-methoxy-N-methyl-4-{[3-(4-{[1-(oxan-4-yl)piperidin-4-yl]amino}-1-(2,2,2-trifluoroethyl)-1H-indol-2-yl)prop-2-yn-1-yl]amino}benzene-1-sulfonamide]",+ (+ = 0 μM ≤ SC150 < 0.05 μM)
13,"COCCN1CC[C@H](Nc2cccc3c2cc(C#CCNc2ccc(S(C)(=O)=O)cc2OC)n3CC(F)(F)F)[C@H](F)C1 [Compound 860A, N-[(3R,4S)-3-fluoro-1-(2-methoxyethyl)piperidin-4-yl]-2-{3-[(4-methanesulfonyl-2-methoxyphenyl)amino]prop-1-yn-1-yl}-1-(2,2,2-trifluoroethyl)-1H-indol-4-amine]",+ (+ = 0 μM ≤ SC150 < 0.05 μM)
14,"COCCN(C)[C@H]1CC[C@H](Nc2cccc3c2cc(C#CCNc2ccc(S(C)(=O)=O)cc2OCF)n3CC(F)(F)F)CC1 [Compound 155A, (1R,4R)—N^1-(2-(3-((2-(fluoromethoxy)-4-(methylsulfonyl)phenyl)amino)prop-1-yn-1-yl)-1-(2,2,2-trifluoroethyl)-1H-indol-4-yl)-N^4-(2-methoxyethyl)-N^4-methylcyclohexane-1,4-diamine]",+ (+ = 0 μM ≤ SC150 < 0.05 μM)
15,"COC[C@@H](O)CN1CCC(Nc2cccc3c2cc(C#CCNc2ccc(S(C)(=O)=O)cc2OCF)n3CC(F)(F)F)CC1 [Compound 666A, (2S)-1-(4-{[2-(3-{[2-(fluoromethoxy)-4-methanesulfonylphenyl]amino}prop-1-yn-1-yl)-1-(2,2,2-trifluoroethyl)-1H-indol-4-yl]amino}piperidin-1-yl)-3-methoxypropan-2-ol]",+ (+ = 0 μM ≤ SC150 < 0.05 μM)
16,"COc1cc(C(=O)O)c(F)cc1NCC#Cc1cc2c(N[C@H]3CC[C@H](N4CC5(COC5)C4)CC3)cccc2n1CC(F)(F)F [Compound 281A, 2-fluoro-5-methoxy-4-{[3-(4-{[(1R,4R)-4-{2-oxa-6-azaspiro[3.3]heptan-6-yl}cyclohexyl]amino}-1-(2,2,2-trifluoroethyl)-1H-indol-2-yl)prop-2-yn-1-yl]amino}benzoic acid]",+ (+ = 0 μM ≤ SC150 < 0.05 μM)
17,"CN1CC[C@H](Nc2cccc3c2cc(C#CCNc2ccc(S(C)(=O)=O)cc2O)n3CC(F)(F)F)[C@H](F)C1 [Compound 835A, 2-{[3-(4-{[(3R,4S)-3-fluoro-1-methylpiperidin-4-yl]amino}-1-(2,2,2-trifluoroethyl)-H-indol-2-yl)prop-2-yn-1-yl]amino}-5-methanesulfonylphenol]",+ (+ = 0 μM ≤ SC150 < 0.05 μM)
18,"CNC(=O)c1ccc(NCC#Cc2cc3c(N[C@H]4CC[C@H](N5CC6(COC6)C5)CC4)cccc3n2CC(F)(F)F)c(O)c1 [Compound 248A, 3-hydroxy-N-methyl-4-{[3-(4-{[(1R,4R)-4-{2-oxa-6-azaspiro[3.3]heptan-6-yl}cyclo-hexyl]amino}-1-(2,2,2-trifluoroethyl)-1H-indol-2-yl)prop-2-yn-1-yl]amino}benzamide]",+ (+ = 0 μM ≤ SC150 < 0.05 μM)
19,"COCC(O)CN1CCC(Nc2cccc3c2cc(C#CCNc2ccc(S(C)(=O)=O)cc2OCCF)n3CC(F)(F)F)CC1 (stereo not drawn) [Compound 625A, 1-(4-{[2-(3-{[2-(2-fluoroethoxy)-4-methanesulfonylphenyl]amino}prop-1-yn-1-yl)-1-(2,2,2-trifluoroethyl)-1H-indol-4-yl]amino}piperidin-1-yl)-3-methoxypropan-2-ol]",+ (+ = 0 μM ≤ SC150 < 0.05 μM)
20,"CCC(=O)N1CC[C@@H](Nc2cccc3c2cc(C#CCNc2ccc(S(C)(=O)=O)cc2OC)n3CC(F)(F)F)[C@@H](F)C1 [Compound 864A, 1-[(3S,4R)-3-fluoro-4-[(2-{3-[(4-methanesulfonyl-2-methoxyphenyl)amino]prop-1-yn-1-yl}-1-(2,2,2-trifluoroethyl)-1H-indol-4-yl)amino]piperidin-1-yl]propan-1-one]",+ (+ = 0 μM ≤ SC150 < 0.05 μM)
21,"COc1cc(C(=O)N2CCN(C)CC2)ccc1NCC#Cc1cc2c(NC3CCN(C)CC3)cccc2n1CC(F)(F)F [Compound 501A, 2-(3-{[2-methoxy-4-(4-methylpiperazine-1-carbonyl)phenyl]amino}prop-1-yn-1-yl)-N-(1-methylpiperidin-4-yl)-1-(2,2,2-trifluoroethyl)-1H-indol-4-amine]",+ (+ = 0 μM ≤ SC150 < 0.05 μM)
